Reference: ChEMBL document CHEMBL6087427, “Discovery of novel cyclopentane carboxylic acids as potent and selective inhibitors of NaV1.7” (Bioorg Med Chem Lett, 2025)
Converted amounts (≈) assume the structure as drawn.

Experiments:
[1] = biological target: T1, Sodium channel protein type 9 subunit alpha (Homo sapiens, UniProt Q15858); assay: Displacement of [3H]GX-545 from Nav1.7 VSD4 (unknown origin)
Target sequence in this assay (Q15858 whole entry): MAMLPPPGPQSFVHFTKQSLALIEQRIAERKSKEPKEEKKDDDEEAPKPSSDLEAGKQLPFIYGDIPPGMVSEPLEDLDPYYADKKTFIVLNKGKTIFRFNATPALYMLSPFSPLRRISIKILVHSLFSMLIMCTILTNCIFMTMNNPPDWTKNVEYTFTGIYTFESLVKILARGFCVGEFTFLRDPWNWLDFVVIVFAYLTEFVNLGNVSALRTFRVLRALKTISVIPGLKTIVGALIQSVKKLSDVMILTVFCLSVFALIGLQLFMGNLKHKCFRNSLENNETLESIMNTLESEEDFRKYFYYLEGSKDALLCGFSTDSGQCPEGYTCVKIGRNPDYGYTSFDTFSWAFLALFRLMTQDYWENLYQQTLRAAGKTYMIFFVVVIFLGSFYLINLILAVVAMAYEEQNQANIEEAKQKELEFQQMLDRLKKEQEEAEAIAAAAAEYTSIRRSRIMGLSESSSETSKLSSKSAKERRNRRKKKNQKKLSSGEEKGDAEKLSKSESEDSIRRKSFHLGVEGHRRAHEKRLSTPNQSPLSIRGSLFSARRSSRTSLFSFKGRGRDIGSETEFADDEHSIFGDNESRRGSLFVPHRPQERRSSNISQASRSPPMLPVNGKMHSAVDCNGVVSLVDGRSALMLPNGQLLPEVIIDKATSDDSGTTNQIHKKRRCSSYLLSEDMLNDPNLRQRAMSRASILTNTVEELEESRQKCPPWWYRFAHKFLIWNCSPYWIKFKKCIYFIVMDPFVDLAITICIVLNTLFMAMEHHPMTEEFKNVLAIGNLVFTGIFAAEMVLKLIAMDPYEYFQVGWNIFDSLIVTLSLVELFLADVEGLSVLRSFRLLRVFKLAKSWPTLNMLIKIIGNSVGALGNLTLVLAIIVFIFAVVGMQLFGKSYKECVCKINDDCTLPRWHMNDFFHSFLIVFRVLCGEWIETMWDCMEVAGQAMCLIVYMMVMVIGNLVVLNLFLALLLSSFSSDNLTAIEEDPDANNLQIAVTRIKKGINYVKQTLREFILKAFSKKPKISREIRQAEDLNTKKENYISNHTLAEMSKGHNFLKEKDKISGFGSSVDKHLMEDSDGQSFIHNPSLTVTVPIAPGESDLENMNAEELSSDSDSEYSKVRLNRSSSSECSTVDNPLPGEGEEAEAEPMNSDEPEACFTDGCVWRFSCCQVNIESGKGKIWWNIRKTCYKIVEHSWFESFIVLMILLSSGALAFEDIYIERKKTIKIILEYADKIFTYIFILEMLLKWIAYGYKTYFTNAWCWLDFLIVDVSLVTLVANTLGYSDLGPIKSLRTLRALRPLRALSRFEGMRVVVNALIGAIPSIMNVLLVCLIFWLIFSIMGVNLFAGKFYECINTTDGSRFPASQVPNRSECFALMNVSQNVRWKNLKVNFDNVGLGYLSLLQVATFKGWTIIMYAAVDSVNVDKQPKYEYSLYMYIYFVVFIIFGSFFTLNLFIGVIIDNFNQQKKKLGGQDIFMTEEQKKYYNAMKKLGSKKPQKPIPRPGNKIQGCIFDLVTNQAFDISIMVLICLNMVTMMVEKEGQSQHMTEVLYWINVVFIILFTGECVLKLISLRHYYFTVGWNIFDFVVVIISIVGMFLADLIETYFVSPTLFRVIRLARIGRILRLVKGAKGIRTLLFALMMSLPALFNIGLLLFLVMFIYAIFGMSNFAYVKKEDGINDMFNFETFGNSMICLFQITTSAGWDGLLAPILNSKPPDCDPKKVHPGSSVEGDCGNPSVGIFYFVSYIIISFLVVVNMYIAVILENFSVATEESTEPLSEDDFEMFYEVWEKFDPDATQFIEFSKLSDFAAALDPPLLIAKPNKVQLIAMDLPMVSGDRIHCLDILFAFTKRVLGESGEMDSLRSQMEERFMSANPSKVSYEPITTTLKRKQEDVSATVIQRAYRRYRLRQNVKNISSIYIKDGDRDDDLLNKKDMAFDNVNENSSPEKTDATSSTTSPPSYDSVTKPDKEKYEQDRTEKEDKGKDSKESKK

[2] = biological target: T1, Sodium channel protein type 9 subunit alpha; assay: Inhibition of human Nav1.7 by patch clamp electrophysiology
Target sequence in this assay (Q15858 whole entry): as above

[3] = biological target: Sodium channel protein type 5 subunit alpha (Homo sapiens, UniProt Q14524); assay: Inhibition of human Nav1.5 by patch clamp electrophysiology
[4] = biological target: T1, Sodium channel protein type 9 subunit alpha; assay: Inhibition of human Nav1.7 by sodium flux assay
Target sequence in this assay (Q15858 whole entry): as above

[5] = Metabolic stability in human liver microsomes assessed as hepatic clearance; format: ADME, Microsome
[6] = Metabolic stability in mouse liver microsomes assessed as hepatic clearance; format: ADME, Microsome
[7] = AUC in mouse at 3 mg/kg, po; format: ADME, organism-based; details: in vivo
[8] = biological target: Sodium channel protein type 1 subunit alpha (Homo sapiens, UniProt P35498); assay: Inhibition of human Nav1.1 by patch clamp electrophysiology
[9] = biological target: Sodium channel protein type 2 subunit alpha (Homo sapiens, UniProt Q99250); assay: Inhibition of human Nav1.2 by patch clamp electrophysiology
[10] = biological target: Sodium channel protein type 8 subunit alpha (Homo sapiens, UniProt Q9UQD0); assay: Inhibition of human Nav1.6 by patch clamp electrophysiology
[11] = Metabolic stability in human hepatocytes assessed as hepatic clearance; format: ADME, cell-based, Hepatocyte
[12] = Metabolic stability in mouse hepatocytes assessed as hepatic clearance; format: ADME, cell-based, Hepatocyte
[13] = Apparent permeability across apical to basolateral side in MDCK cells; format: ADME, cell-based, Canis lupus familiaris; details: dog
MDR1 (P-gp) = assay: Efflux ratio in MDCK-MDR1 cells; format: ADME, cell-based, Canis lupus familiaris; details: dog
BCRP = assay: Efflux ratio in MDCK-BCRP cells; format: ADME, cell-based, Canis lupus familiaris; details: dog
[14] = Plasma protein binding in human; format: ADME, cell-free; details: read-out: PPB
[15] = Plasma protein binding in mouse; format: ADME, cell-free; details: read-out: PPB
Cytochrome P450 1A2 = biological target: T2, Cytochrome P450 1A2 (Homo sapiens, UniProt P05177); assay: Inhibition of CYP1A2 (unknown origin); format: ADME
T2 sequence (P05177 whole entry): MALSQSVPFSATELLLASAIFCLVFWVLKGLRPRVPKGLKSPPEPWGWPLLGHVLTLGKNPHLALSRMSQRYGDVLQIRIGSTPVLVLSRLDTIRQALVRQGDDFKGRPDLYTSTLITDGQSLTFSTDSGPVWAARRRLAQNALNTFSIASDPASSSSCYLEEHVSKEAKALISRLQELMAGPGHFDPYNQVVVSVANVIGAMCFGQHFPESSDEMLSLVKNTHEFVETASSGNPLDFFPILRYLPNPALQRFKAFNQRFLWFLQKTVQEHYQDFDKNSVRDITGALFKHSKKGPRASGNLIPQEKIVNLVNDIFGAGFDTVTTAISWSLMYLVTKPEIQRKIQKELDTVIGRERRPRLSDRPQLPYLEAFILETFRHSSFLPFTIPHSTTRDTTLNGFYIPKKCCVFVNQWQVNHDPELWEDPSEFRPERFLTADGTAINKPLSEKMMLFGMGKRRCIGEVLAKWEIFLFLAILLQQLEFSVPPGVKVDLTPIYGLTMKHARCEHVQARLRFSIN

Cytochrome P450 2C19 = Cytochrome P450 2C19 (Homo sapiens, UniProt P33261); assay: Inhibition of CYP2C19 (unknown origin); format: ADME
Cytochrome P450 2C9 = Cytochrome P450 2C9 (Homo sapiens, UniProt P11712); assay: Inhibition of CYP2C9 (unknown origin); format: ADME
Cytochrome P450 2D6 = Cytochrome P450 2D6 (Homo sapiens, UniProt P10635); assay: Inhibition of CYP2D6 (unknown origin); format: ADME
Cytochrome P450 3A4 = Cytochrome P450 3A4 (Homo sapiens, UniProt P08684); assay: Inhibition of CYP3A4 (unknown origin); format: ADME
[16] = Kinetic solubility of compound; format: physicochemical; details: read-out: Kinetic_solubility
[17] = Volume of distribution at steady state in mouse at 1 mg/kg, iv; format: ADME, organism-based; details: in vivo, read-out: Vdss
[18] = Half life in mouse at 1 mg/kg, iv; format: ADME, organism-based; details: in vivo
[19] = Cmax in mouse at 3 mg/kg, po; format: ADME, organism-based; details: in vivo
[20] = Half life in mouse at 3 mg/kg, po; format: ADME, organism-based; details: in vivo
[21] = Oral bioavailability in mouse at 3 mg/kg; format: ADME, organism-based; details: in vivo
Mus musculus [22] = assay: Analgesic activity in aconitine-induced nociception in IEM transgenic FVB mouse model assessed as reduction in pain response at 3 mg/kg, po pretreated for 2 hrs followed by aconitine administration measured for 30 mins post-aconitine dose relative to control; format: functional; design: scale not given: the % may be the effect or the level left; details: time 2.5 hrs
Mus musculus [23] = assay: Analgesic activity in aconitine-induced nociception in IEM transgenic FVB mouse model assessed as reduction in pain response at 10 mg/kg, po pretreated for 2 hrs followed by aconitine administration measured for 30 mins post-aconitine dose relative to control; format: functional; design: scale not given: the % may be the effect or the level left; details: time 2.5 hrs
Mus musculus [24] = assay: Analgesic activity in aconitine-induced nociception in IEM transgenic FVB mouse model assessed as reduction in pain response at 30 mg/kg, po pretreated for 2 hrs followed by aconitine administration measured for 30 mins post-aconitine dose relative to control; format: functional; design: scale not given: the % may be the effect or the level left; details: time 2.5 hrs
Mus musculus [25] = assay: Analgesic activity in aconitine-induced nociception in IEM transgenic FVB mouse model assessed as reduction in pain response at 100 mg/kg, po pretreated for 2 hrs followed by aconitine administration measured for 30 mins post-aconitine dose relative to control; format: functional; design: scale not given: the % may be the effect or the level left; details: time 2.5 hrs
[26] = Drug concentration in plasma of aconitine-induced nociception in IEM transgenic FVB mouse model at 3 mg/kg, po pretreated for 2 hrs followed by aconitine administration measured for 30 mins post-aconitine dose; format: ADME, organism-based
[27] = Drug concentration in plasma of aconitine-induced nociception in IEM transgenic FVB mouse model at 10 mg/kg, po pretreated for 2 hrs followed by aconitine administration measured for 30 mins post-aconitine dose; format: ADME, organism-based
[28] = Drug concentration in plasma of aconitine-induced nociception in IEM transgenic FVB mouse model at 30 mg/kg, po pretreated for 2 hrs followed by aconitine administration measured for 30 mins post-aconitine dose; format: ADME, organism-based
[29] = Drug concentration in plasma of aconitine-induced nociception in IEM transgenic FVB mouse model at 100 mg/kg, po pretreated for 2 hrs followed by aconitine administration measured for 30 mins post-aconitine dose; format: ADME, organism-based
Mus musculus [30] = assay: Analgesic activity in aconitine-induced nociception in IEM transgenic FVB mouse model assessed as inhibition of nociceptive behaviour at 3 to 100 mg/kg, po pretreated for 2 hrs followed by aconitine administration measured for 30 mins post-aconitine dose; format: functional, organism-based
[31] = Drug concentration in brain of aconitine-induced nociception in IEM transgenic FVB mouse model at EC50 pretreated orally for 2 hrs followed by aconitine administration measured for 30 mins post-aconitine dose; format: ADME, tissue-based; details: route po, read-out: Ct
[32] = Ratio of drug concentration in brain to plasma of aconitine-induced nociception in IEM transgenic FVB mouse model at EC50 pretreated orally for 2 hrs followed by aconitine administration measured for 30 mins post-aconitine dose; format: ADME; details: route po, read-out: BPR
[33] = biological target: T1, Sodium channel protein type 9 subunit alpha; assay: Inhibition of human Nav1.7 assessed as fold shift in IC50 in presence of BSA by sodium flux assay
Target sequence in this assay (Q15858 whole entry, looked up): as the sequence (Q15858 whole entry) above

Sodium channel protein type 5 subunit alpha, sequence (Q14524 whole entry): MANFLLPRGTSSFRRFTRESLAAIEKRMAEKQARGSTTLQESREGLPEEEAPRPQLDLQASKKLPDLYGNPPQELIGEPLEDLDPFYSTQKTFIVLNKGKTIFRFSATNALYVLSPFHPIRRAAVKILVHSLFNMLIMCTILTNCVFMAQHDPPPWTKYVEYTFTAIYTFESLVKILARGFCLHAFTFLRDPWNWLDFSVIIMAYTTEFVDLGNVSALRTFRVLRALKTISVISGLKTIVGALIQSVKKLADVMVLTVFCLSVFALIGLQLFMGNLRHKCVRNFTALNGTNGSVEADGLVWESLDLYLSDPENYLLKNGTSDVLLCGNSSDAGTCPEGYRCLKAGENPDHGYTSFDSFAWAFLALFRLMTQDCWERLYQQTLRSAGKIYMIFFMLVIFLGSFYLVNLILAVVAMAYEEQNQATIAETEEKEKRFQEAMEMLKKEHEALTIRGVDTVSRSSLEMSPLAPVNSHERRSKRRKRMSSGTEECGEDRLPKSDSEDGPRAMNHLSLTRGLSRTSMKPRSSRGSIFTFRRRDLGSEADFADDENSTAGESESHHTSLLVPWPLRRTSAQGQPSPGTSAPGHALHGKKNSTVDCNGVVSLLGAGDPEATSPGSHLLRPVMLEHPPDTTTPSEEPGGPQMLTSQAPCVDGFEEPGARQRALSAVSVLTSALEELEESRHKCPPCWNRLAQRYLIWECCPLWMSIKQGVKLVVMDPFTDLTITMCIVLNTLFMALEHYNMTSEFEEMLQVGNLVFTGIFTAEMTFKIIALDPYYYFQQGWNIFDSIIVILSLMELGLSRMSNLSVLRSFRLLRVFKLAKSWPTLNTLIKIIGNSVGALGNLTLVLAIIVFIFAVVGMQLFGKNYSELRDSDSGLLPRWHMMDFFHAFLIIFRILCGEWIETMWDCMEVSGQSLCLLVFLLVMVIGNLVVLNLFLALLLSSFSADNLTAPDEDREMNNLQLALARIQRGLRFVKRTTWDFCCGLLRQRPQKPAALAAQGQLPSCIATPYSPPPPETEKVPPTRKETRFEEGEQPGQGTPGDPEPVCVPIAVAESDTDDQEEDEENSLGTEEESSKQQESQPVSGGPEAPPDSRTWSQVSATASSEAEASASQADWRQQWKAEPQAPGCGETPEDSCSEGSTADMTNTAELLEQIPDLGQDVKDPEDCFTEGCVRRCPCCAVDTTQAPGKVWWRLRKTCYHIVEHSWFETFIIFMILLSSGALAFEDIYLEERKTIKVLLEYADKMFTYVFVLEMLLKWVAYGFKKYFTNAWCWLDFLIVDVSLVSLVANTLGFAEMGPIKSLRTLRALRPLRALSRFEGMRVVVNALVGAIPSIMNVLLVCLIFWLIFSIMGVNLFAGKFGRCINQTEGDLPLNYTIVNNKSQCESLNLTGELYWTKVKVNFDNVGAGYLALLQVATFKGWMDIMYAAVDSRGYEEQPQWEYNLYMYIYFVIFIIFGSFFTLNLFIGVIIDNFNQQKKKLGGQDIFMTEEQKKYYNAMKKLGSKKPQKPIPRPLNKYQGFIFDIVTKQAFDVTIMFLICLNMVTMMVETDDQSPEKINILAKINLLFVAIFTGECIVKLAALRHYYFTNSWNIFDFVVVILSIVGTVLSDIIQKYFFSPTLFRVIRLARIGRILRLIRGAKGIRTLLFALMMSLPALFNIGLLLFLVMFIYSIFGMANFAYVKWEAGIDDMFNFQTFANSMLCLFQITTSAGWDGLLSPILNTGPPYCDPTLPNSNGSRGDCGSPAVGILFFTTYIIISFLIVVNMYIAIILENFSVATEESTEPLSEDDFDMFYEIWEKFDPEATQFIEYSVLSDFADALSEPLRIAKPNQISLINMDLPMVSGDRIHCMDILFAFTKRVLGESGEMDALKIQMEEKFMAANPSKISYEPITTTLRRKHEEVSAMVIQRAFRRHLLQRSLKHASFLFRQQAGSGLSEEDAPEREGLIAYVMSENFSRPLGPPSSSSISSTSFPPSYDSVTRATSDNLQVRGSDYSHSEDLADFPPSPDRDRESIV
Cytochrome P450 2C9, sequence (P11712 whole entry): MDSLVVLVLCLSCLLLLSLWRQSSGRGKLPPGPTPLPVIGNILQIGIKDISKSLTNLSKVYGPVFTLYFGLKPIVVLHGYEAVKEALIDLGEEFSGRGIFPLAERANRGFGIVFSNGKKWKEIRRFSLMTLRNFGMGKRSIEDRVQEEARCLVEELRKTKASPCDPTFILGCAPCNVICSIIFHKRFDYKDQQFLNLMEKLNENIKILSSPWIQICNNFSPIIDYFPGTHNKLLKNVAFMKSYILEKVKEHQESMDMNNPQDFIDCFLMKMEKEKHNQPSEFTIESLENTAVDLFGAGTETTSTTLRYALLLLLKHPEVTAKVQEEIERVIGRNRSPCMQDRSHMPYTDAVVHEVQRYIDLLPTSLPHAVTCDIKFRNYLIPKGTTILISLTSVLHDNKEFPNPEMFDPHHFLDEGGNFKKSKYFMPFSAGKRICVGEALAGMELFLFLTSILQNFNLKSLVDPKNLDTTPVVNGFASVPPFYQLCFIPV
Cytochrome P450 3A4, sequence (P08684 whole entry): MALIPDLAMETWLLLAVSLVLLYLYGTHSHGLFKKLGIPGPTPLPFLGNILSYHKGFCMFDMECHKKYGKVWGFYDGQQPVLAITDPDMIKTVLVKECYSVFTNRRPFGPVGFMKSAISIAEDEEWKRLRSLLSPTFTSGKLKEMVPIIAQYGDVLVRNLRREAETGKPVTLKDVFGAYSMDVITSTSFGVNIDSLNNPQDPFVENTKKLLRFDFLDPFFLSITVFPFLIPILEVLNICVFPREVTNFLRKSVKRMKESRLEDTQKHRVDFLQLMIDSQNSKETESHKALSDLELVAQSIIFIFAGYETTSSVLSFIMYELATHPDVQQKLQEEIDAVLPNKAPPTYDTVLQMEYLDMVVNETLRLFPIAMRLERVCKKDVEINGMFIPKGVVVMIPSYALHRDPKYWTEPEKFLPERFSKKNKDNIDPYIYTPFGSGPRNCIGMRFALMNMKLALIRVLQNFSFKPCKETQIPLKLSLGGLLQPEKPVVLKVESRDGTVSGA

Structure (SMILES): C[C@@H]1C[C@@H](C(=O)O)N(C(=O)c2cc(C3CC3)c(OCC34CC5CC(CC(C5)C3)C4)cc2F)C1
- Ki [1]: 85 nM

Structure (SMILES): O=C(O)[C@@H]1C[C@H](O)CN1C(=O)c1cc(C2CC2)c(OCC23CC4CC(CC(C4)C2)C3)cc1F
- Ki [1]: 150 nM

Structure (SMILES): C[C@@H]1[C@H](F)CN(C(=O)c2cc(C3CC3)c(OCC34CC5CC(CC(C5)C3)C4)cc2F)[C@@H]1C(=O)O
- Ki [1]: 220 nM

Structure (SMILES): O=C(O)[C@@H]1C[C@@H](F)CN1C(=O)c1cc(C2CC2)c(OCC23CC4CC(CC(C4)C2)C3)cc1F
- Ki [1]: 7 nM

Structure (SMILES): C[C@@H]1[C@@H](C(=O)O)[C@H](C(=O)c2cc(C3CC3)c(OCC3CCN(Cc4c(Cl)cccc4Cl)CC3)cc2F)C[C@@H]1F
- Ki [1]: 4.9 nM
- IC50 [2]: 13 nM
- IC50 [3]: 5900 nM
- IC50 [4]: 99 nM
- CLhep predicted [5]: 11 mL/min/kg
- CLhep predicted [6]: 51 mL/min/kg
- AUC ([7]; po, 3 mg/kg): 9.6 µM·h
- IC50 [8]: 25 nM
- IC50 [9]: 15 nM
- IC50 [10]: 300 nM
- CLhep predicted [11]: 6.2 mL/min/kg
- CLhep predicted [12]: 21 mL/min/kg
- Papp A→B [13]: 19 ×10⁻⁶ cm/s
- efflux ratio (MDR1 (P-gp)): 2.8
- efflux ratio (BCRP): 0.92
- fraction unbound [14]: 0.0001
- fraction unbound [15]: 0.0001
- IC50 (Cytochrome P450 1A2): > 10000 nM
- IC50 (Cytochrome P450 2C19): > 10000 nM
- IC50 (Cytochrome P450 2C9): > 10000 nM
- IC50 (Cytochrome P450 2D6): > 10000 nM
- IC50 (Cytochrome P450 3A4): > 10000 nM
- solubility kinetic [16]: 58 µM (≈ 33.7 µg/mL)
- Vd [17]: 0.94 L/kg
- half-life [18]: 1.2 h
- Cmax [19]: 1.5 µM
- half-life [20]: 3.6 h
- F [21]: 45%
- Activity (Mus musculus [22]): 35%
- Activity (Mus musculus [23]): 81%
- Activity (Mus musculus [24]): 96%
- Activity (Mus musculus [25]): 100%
- concentration at 2.5 h [26]: 1.77 µM
- concentration at 2.5 h [27]: 7.29 µM
- concentration at 2.5 h [28]: 20.8 µM
- concentration at 2.5 h [29]: 50.9 µM
- EC50 (Mus musculus [30]): 2720 nM
- concentration at 2.5 h [31]: 0.33 µM
- Kp at 2.5 h [32]: ~0.12

Structure (SMILES): O=C(O)[C@@H]1[C@H](O)CCN1C(=O)c1cc(C2CC2)c(OCC23CC4CC(CC(C4)C2)C3)cc1F
- Ki [1]: 160 nM

Structure (SMILES): O=C(O)[C@@H]1[C@H](F)CCN1C(=O)c1cc(C2CC2)c(OCC23CC4CC(CC(C4)C2)C3)cc1F
- Ki [1]: 170 nM

Structure (SMILES): O=C(O)[C@@H]1[C@@H](O)CCN1C(=O)c1cc(C2CC2)c(OCC23CC4CC(CC(C4)C2)C3)cc1F
- Ki [1]: 600 nM

Structure (SMILES): C[C@H]1[C@H](O)CN(C(=O)c2cc(C3CC3)c(OCC34CC5CC(CC(C5)C3)C4)cc2F)[C@@H]1C(=O)O
- Ki [1]: 21 nM

Structure (SMILES): O=C(c1cc(C2CC2)c(OCC23CC4CC(CC(C4)C2)C3)cc1F)C1CCC[C@H]1C(=O)O (some centres not stated)
- Ki [1]: 8.6 nM
- IC50 [2]: 12 nM
- IC50 [3]: 2600 nM
- IC50 [4]: 250 nM
- fold change (FC) [33]: 1.5
- CLhep predicted [5]: 17 mL/min/kg
- CLhep predicted [6]: 61 mL/min/kg
- AUC ([7]; read-out: AUC): 0.53 µM·h

Structure (SMILES): O=C(O)[C@@H]1CC(F)(F)CN1C(=O)c1cc(C2CC2)c(OCC23CC4CC(CC(C4)C2)C3)cc1F
- Ki [1]: 35 nM

Structure (SMILES): C[C@@]1(C(=O)O)CCCN1C(=O)c1cc(C2CC2)c(OCC23CC4CC(CC(C4)C2)C3)cc1F
- Ki [1]: 100 nM
